Where two headings read alike, the source gives them in different places.
Assays:
[1] = Compound cytotoxicity (CC50), XTT-based colorimetric assay; type: cell-based; conditions: human; uninfected MT2 cells, day 4, XTT assay
Summary of the method: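 Run under the antiviral-assay protocol but without virus. Viability was read on day 4 and CC50 values were derived from the readout.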

[2] = system: recombinant NL4-3 virus (nef section replaced with Renilla luciferase gene) in MT-2 cells; assay: whole plant or invertebrate; type: cell-based, HIV; conditions: NL43, luciferase activity in MT-2 cells infected 4-5 days with recombinant NL4-3 virus
Summary of the method: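 Nef-deleted NL4-3 reporter virus carrying Renilla luciferase was used to infect MT-2 cells in the presence of serial compound dilutions. After 4-5 days of infection, antiviral activity was quantified from luciferase activity using a live-cell substrate.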

| SMILES | CC50 at 4 day [1] [nM] | EC50 ([2]; read-out: Activity) [nM] | EC50 ([2]; read-out: EC50) [nM] |
| --- | --- | --- | --- |
| Cc1ccccc1S(=O)(=O)NC(=O)N[C@@H](Cc1ccccc1)c1nccn1-c1ccc(-c2ccsc2)cc1 [Example 60, (S)-2-methyl-N-((2-phenyl-1-(1-(4-(thiophen-3-yl)phenyl)-1H-imidazol-2-yl)ethyl)carbamoyl)benzenesulfonamide] | > 100000 | < 100 | 30 |
| Cc1ccccc1S(=O)(=O)NC(=O)N[C@@H](Cc1ccccc1)c1nccn1-c1ccc(-c2cnn(C)c2)cc1 [Example 61, (S)-2-methyl-N-((1-(1-(4-(1-methyl-1H-pyrazol-4-yl)phenyl)-1H-imidazol-2-yl)-2-phenylethyl)carbamoyl)benzenesulfonamide] | > 33000 | < 100 |  |
| Cc1ccccc1S(=O)(=O)NC(=O)N[C@@H](Cc1ccccc1)c1nccn1-c1ccc(-c2ccoc2C)cc1 [Example 62, (S)-2-methyl-N-((1-(1-(4-(2-methylfuran-3-yl)phenyl)-1H-imidazol-2-yl)-2-phenylethyl)carbamoyl)benzenesulfonamide] | > 100000 | < 100 |  |
| COc1ccc(-c2ccc(-n3ccnc3[C@H](Cc3ccccc3)NC(=O)NS(=O)(=O)c3ccccc3C)cc2)cn1 [Example 63, (S)-N-((1-(1-(4-(6-methoxypyridin-3-yl)phenyl)-1H-imidazol-2-yl)-2-phenylethyl)carbamoyl)-2-methylbenzenesulfonamide] | > 100000 | 100 to 1000 | 100 |
| O=C(N[C@@H](Cc1ccccc1)c1nccn1-c1ccc(-c2ccoc2)cc1)NS(=O)(=O)c1ccccc1F [Example 64, (S)-2-fluoro-N-((1-(1-(4-(furan-3-yl)phenyl)-1H-imidazol-2-yl)-2-phenylethyl)carbamoyl)benzenesulfonamide] | > 100000 | < 100 |  |
| Cc1ccccc1S(=O)(=O)NC(=O)N[C@@H](Cc1ccccc1)c1nccn1-c1cccc(-c2ccoc2)c1 [Example 65, (S)-N-((1-(1-(3-(furan-3-yl)phenyl)-1H-imidazol-2-yl)-2-phenylethyl)carbamoyl)-2-methylbenzenesulfonamide] | > 100000 | 100 to 1000 |  |
| Cc1ccccc1S(=O)(=O)NC(=O)N[C@@H](Cc1ccccc1)c1nccn1-c1ccc2c(c1)ncn2C [Example 66, (S)-2-methyl-N-((1-(1-(1-methyl-1H-benzo[d]imidazol-5-yl)-1H-imidazol-2-yl)-2-phenylethyl)carbamoyl)benzenesulfonamide] | > 100000 | 100 to 1000 | 340 |
| Cc1ccc2cc(-n3ccnc3[C@H](Cc3ccccc3)NC(=O)NS(=O)(=O)c3ccccc3C)ccc2n1 [Example 67, (S)-2-methyl-N-((1-(1-(2-methylquinolin-6-yl)-1H-imidazol-2-yl)-2-phenylethyl)carbamoyl)benzenesulfonamide] | > 100000 | < 100 |  |
| Cc1ccccc1S(=O)(=O)NC(=O)N[C@@H](Cc1ccccc1)c1nccn1-c1cccc(N2CCCC2)c1 [Example 68, (S)-2-methyl-N-((2-phenyl-1-(1-(3-(pyrrolidin-1-yl)phenyl)-1H-imidazol-2-yl)ethyl)carbamoyl)benzenesulfonamide] | > 100000 | 100 to 1000 |  |
| Cc1ccccc1S(=O)(=O)NC(=O)N[C@@H](Cc1ccccc1)c1nccn1-c1ccc2ccccc2c1 [Example 69, (S)-2-methyl-N-((1-(1-(naphthalen-2-yl)-1H-imidazol-2-yl)-2-phenylethyl)carbamoyl)benzenesulfonamide] | > 100000 | < 100 | 40 |
| Cc1ccccc1S(=O)(=O)NC(=O)N[C@@H](Cc1ccccc1)c1nccn1-c1ccc2scnc2c1 [Example 70, (S)-N-((1-(1-(benzo[d]thiazol-5-yl)-1H-imidazol-2-yl)-2-phenylethyl)carbamoyl)-2-methylbenzenesulfonamide] | > 100000 | < 100 |  |
| O=C(N[C@@H](Cc1ccccc1)c1nccn1-c1ccc2scnc2c1)NS(=O)(=O)c1ccccc1F [Example 71, (S)-N-((1-(1-(benzo[d]thiazol-5-yl)-1H-imidazol-2-yl)-2-phenylethyl)carbamoyl)-2-fluorobenzenesulfonamide] | > 100000 | 100 to 1000 |  |
| Cc1nc2cc(-n3ccnc3[C@H](Cc3ccccc3)NC(=O)NS(=O)(=O)c3ccccc3C)ccc2s1 [Example 72, (S)-2-methyl-N-((1-(1-(2-methylbenzo[d]thiazol-5-yl)-1H-imidazol-2-yl)-2-phenylethyl)carbamoyl)benzenesulfonamide] | > 100000 | < 100 | 50 |
| Cc1nc2cc(-n3ccnc3[C@H](Cc3ccccc3)NC(=O)NS(=O)(=O)c3ccccc3F)ccc2s1 [Example 73, (S)-2-fluoro-N-((1-(1-(2-methylbenzo[d]thiazol-5-yl)-1H-imidazol-2-yl)-2-phenylethyl)carbamoyl)benzenesulfonamide] | > 100000 | 100 to 1000 |  |
| Cc1ccccc1S(=O)(=O)NC(=O)N[C@@H](Cc1ccccc1)c1nccn1-c1ccc2sccc2c1 [Example 74, (S)-N-((1-(1-(benzo[b]thiophen-5-yl)-1H-imidazol-2-yl)-2-phenylethyl)carbamoyl)-2-methylbenzenesulfonamide] | 39000 | < 100 |  |
| O=C(N[C@@H](Cc1ccccc1)c1nccn1-c1ccc2c(c1)CCO2)NS(=O)(=O)c1ccccc1F [Example 75, (S)-N-((1-(1-(2,3-dihydrobenzofuran-5-yl)-1H-imidazol-2-yl)-2-phenylethyl)carbamoyl)-2-fluorobenzenesulfonamide] | > 100000 | < 100 | 20 |
| COC(=O)Nc1cccc(-n2ccnc2[C@H](Cc2ccccc2)NC(=O)NS(=O)(=O)c2ccccc2C)c1 [Example 76, (S)-methyl (3-(2-(2-phenyl-1-(3-(o-tolylsulfonyl)ureido)ethyl)-1H-imidazol-1-yl)phenyl)carbamate] | > 100000 | 100 to 1000 |  |
| Cc1ccccc1S(=O)(=O)NC(=O)N[C@@H](Cc1ccccc1)c1nccn1-c1ccc2occc2c1 [Example 77, (S)-N-((1-(1-(benzofuran-5-yl)-1H-imidazol-2-yl)-2-phenylethyl)carbamoyl)-2-methylbenzenesulfonamide] | > 100000 | < 100 |  |
| O=C(N[C@@H](Cc1ccccc1)c1nccn1-c1ccc2occc2c1)NS(=O)(=O)c1ccccc1F [Example 78, (S)-N-((1-(1-(benzofuran-5-yl)-1H-imidazol-2-yl)-2-phenylethyl)carbamoyl)-2-fluorobenzenesulfonamide] | > 100000 | < 100 | 20 |
| CCCC(=O)Nc1cccc(-n2ccnc2[C@H](Cc2ccccc2)NC(=O)NS(=O)(=O)c2ccccc2C)c1 [Example 79, (S)-N-(3-(2-(2-phenyl-1-(3-(o-tolylsulfonyl)ureido)ethyl)-1H-imidazol-1-yl)phenyl)butyramide] | > 100000 | > 1000 |  |
| Cc1ccccc1S(=O)(=O)NC(=O)N[C@@H](Cc1ccccc1)c1nccn1-c1cnn(-c2ccccc2)c1 [Example 80, (S)-2-methyl-N-((2-phenyl-1-(1-(1-phenyl-1H-pyrazol-4-yl)-1H-imidazol-2-yl)ethyl)carbamoyl)benzenesulfonamide] | > 100000 | < 100 |  |
